Test results from patent US20240217960A1, “TRIAZINE DERIVATIVE AS COVALENT INHIBITORS OF PI3K” (UNIVERSITÄT BASEL, priority 2021, published 2024).
pIC50, pKi: −log10 of the molar value. Like-named read-outs stand apart in the source and are kept apart here.

Columns and labels:
[1] = Intrinsic reactivity of the inhibitors (kchem) with βME measured with HPLC; assay type: physicochemical; details: 1 mM inhibitor + 600 mM βME, n = 3
[2] = tested on: pSer473 of PKB/Akt in SKOV3 cells; experiment: In Cell Western cellular PI3K signaling and IC50 determination; assay type: cell-based; details: Homo sapiens
Protocol: Protein phosphorylation was detected as follows: pSer473 of PKB/Akt with rabbit polyclonal antibody from Cell Signaling Technology (CST) (#4058) by In-Cell Western assays, where 1.2×10^4 SKOV3 cells/well in 96-well plates were plated (Cell Carrier, PerkinElmer) for 24 hours (37° C., 5% CO2), as described in Ref. ^25.

p110α (PI3Kα) = p110α (PI3Kα) (Homo sapiens, UniProt P42336); experiment: Determination of kinetic constants (kinact, Ki) for p110α by LanthaScreen Technology; assay type: binding; details: for kinact: maximum potential rate of covalent bond formation, read-out: kinact PI3Kα; for kinact/KI: read-out: kinact/Ki PI3Kα
Protocol: Maximum potential rate of covalent bond formation (kinact) and dissociation constant of the first reversible binding (Ki) of compounds for p110α were determined by LanthaScreen Technology (Life Technologies). The calculation of kinetic parameters was carried out through global fitting for numerical integration by using KinTek Global Kinetic Explorer modelling software^26-31.

[3] = SK-OV-3, SKOV3 cells, 2 or 3 independent measurements, read-out: IC50 pPKB (S473) SKOV3
[4] = dissociation constant of the first reversible binding, global fitting with KinTek, read-out: Ki PI3Kα
[5] = SK-OV-3, read-out: IC50 pPKB (S473) SKOV3

Chain of p110α (PI3Kα) (P42336 whole entry): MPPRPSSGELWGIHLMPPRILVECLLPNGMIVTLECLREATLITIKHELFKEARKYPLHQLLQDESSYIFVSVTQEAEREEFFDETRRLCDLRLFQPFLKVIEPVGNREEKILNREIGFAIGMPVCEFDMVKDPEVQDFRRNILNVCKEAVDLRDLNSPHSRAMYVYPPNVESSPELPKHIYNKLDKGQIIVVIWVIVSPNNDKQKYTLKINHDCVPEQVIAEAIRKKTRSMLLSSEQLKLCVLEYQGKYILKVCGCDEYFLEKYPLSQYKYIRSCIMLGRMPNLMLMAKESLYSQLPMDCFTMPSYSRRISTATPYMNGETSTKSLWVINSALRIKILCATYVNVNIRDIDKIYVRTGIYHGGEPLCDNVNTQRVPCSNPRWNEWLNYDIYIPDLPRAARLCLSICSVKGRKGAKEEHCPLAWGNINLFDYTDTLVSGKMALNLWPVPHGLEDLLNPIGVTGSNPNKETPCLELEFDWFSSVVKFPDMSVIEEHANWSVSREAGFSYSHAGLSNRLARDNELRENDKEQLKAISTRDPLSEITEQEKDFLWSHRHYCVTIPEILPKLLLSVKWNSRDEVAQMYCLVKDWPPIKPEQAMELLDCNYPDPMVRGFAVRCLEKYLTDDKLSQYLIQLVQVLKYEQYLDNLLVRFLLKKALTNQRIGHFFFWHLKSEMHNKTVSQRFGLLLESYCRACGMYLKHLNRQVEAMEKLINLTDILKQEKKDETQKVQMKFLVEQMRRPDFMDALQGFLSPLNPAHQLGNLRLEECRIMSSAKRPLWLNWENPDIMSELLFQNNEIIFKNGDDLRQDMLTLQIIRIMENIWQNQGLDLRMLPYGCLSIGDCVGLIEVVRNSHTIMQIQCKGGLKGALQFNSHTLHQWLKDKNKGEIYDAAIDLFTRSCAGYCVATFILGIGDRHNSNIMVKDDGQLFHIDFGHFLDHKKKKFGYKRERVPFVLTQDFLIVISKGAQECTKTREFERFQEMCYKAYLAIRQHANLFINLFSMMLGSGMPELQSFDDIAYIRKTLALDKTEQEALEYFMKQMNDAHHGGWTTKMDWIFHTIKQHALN
Chain of p110α (PI3Kα) (P27986 whole entry partner): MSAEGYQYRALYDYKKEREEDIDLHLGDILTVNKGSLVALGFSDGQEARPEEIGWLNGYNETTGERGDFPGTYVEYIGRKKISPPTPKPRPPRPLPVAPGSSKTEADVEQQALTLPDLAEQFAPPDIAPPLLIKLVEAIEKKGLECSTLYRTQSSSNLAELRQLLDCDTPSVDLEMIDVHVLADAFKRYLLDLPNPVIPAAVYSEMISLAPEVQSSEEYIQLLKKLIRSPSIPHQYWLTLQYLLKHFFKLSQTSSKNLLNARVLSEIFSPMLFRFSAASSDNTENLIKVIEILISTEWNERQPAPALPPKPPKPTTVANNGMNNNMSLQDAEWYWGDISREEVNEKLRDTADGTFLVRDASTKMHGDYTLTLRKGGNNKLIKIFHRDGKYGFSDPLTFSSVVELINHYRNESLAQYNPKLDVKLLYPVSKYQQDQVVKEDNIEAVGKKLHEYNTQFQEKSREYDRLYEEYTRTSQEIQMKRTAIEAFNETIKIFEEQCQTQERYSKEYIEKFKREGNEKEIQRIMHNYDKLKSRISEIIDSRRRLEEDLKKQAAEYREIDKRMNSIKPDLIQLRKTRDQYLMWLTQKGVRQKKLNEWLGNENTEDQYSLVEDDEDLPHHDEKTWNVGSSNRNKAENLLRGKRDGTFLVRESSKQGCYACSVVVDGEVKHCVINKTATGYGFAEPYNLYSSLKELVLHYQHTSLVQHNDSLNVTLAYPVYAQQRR

With C/C=C/C(=O)CCCCC(=O)N1CCN(c2nc(-c3cnc(N)nc3C(F)F)nc(N3CCOCC3)n2)CC1 [Compound 2, (E)-1-(4-(4-(2-amino-4-(difluoromethyl)pyrimidin-5-yl)-6-morpholino-1,3,5-triazin-2-yl)piperazin-1-yl)non-7-ene-1,6-dione] the “kchem (intrinsic reactivity of the inhibitors)” value [1] was 0.0857 M⁻¹ s⁻¹, the pIC50 [2, 3] was 7.33 and the pKi (p110α (PI3Kα); [4]) was 8.24. It also gave a kinact (p110α (PI3Kα); global fitting with KinTek) of 0.00392 s⁻¹ and a kinact/KI (p110α (PI3Kα)) of 693000 M⁻¹ s⁻¹.
With CC(C)=CC(=O)CCCCC(=O)N1CCN(c2nc(-c3cnc(N)nc3C(F)F)nc(N3CCOCC3)n2)CC1 [Compound 5, 1-(4-(4-(2-amino-4-(difluoromethyl)pyrimidin-5-yl)-6-morpholino-1,3,5-triazin-2-yl)piperazin-1-yl)-8-methylnon-7-ene-1,6-dione] the “kchem (intrinsic reactivity of the inhibitors)” value [1] was 0.00022 M⁻¹ s⁻¹, the pIC50 [2, 3] was 7.28 and the pKi (p110α (PI3Kα); [4]) was 8.00. The kinact (p110α (PI3Kα); global fitting with KinTek) was 0.000187 s⁻¹ and the kinact/KI (p110α (PI3Kα)) was 18700 M⁻¹ s⁻¹.
In the case of CC(C)=CC(=O)N(C)CCCC(=O)N1CCN(c2nc(-c3cnc(N)nc3C(F)F)nc(N3CCOCC3)n2)CC1 [Compound 11, N-(4-(4-(4-(2-amino-4-(difluoromethyl)pyrimidin-5-yl)-6-morpholino-1,3,5-triazin-2-yl)piperazin-1-yl)-4-oxobutyl)-N,3-dimethylbut-2-enamide], the “kchem (intrinsic reactivity of the inhibitors)” value [1] was <<1.00 × 10^−7 M^−1 · s^−1 and the pKi (p110α (PI3Kα); Ki value determined after 60 min of drug incubation with PI3Kα, 2 independent measurements, read-out: Ki PI3Kα (footnote d)) was 8.16.
In the case of C=CC(=O)NCCCC(=O)N1CCN(c2nc(-c3cnc(N)nc3C(F)F)nc(N3CCOCC3)n2)CC1 [Compound 13, N-(4-(4-(4-(2-amino-4-(difluoromethyl)pyrimidin-5-yl)-6-morpholino-1,3,5-triazin-2-yl)piperazin-1-yl)-4-oxobutyl)acrylamide], the “kchem (intrinsic reactivity of the inhibitors)” value [1] was 0.000138 M⁻¹ s⁻¹, the pKi (p110α (PI3Kα); [4]) was 8.27 and the kinact (p110α (PI3Kα); global fitting with KinTek) was 7.6e-05 s⁻¹. It also gave a kinact/KI (p110α (PI3Kα)) of 14200 M⁻¹ s⁻¹.
With C/C=C/C(=O)CCC(=O)N1CCN(c2nc(-c3cnc(N)nc3C(F)F)nc(N3CCOCC3)n2)CC1 [Compound 19, (E)-1-(4-(4-(2-amino-4-(difluoromethyl)pyrimidin-5-yl)-6-morpholino-1,3,5-triazin-2-yl)piperazin-1-yl)hept-5-ene-1,4-dione] the “kchem (intrinsic reactivity of the inhibitors)” value [1] was 0.0484 M⁻¹ s⁻¹, the pIC50 [2, 3] was 7.70 and the pKi (p110α (PI3Kα); [4]) was 8.82. The kinact (p110α (PI3Kα); global fitting with KinTek) was 0.0002 s⁻¹ and the kinact/KI (p110α (PI3Kα)) was 130000 M⁻¹ s⁻¹.
For C/C=C/C(=O)CCCC(=O)N1CCN(c2nc(-c3cnc(N)nc3C(F)F)nc(N3CCOCC3)n2)CC1 [Compound 20, (E)-1-(4-(4-(2-amino-4-(difluoromethyl)pyrimidin-5-yl)-6-morpholino-1,3,5-triazin-2-yl)piperazin-1-yl)oct-6-ene-1,5-dione], the “kchem (intrinsic reactivity of the inhibitors)” value [1] was 0.0806 M⁻¹ s⁻¹, the pIC50 [2, 3] was 7.41 and the pKi (p110α (PI3Kα); [4]) was 8.17. For the same compound, the kinact (p110α (PI3Kα); global fitting with KinTek) was 0.00121 s⁻¹ and the kinact/KI (p110α (PI3Kα)) was 183000 M⁻¹ s⁻¹.
For C/C=C/C(=O)CCCCCC(=O)N1CCN(c2nc(-c3cnc(N)nc3C(F)F)nc(N3CCOCC3)n2)CC1 [Compound 21, (E)-1-(4-(4-(2-amino-4-(difluoromethyl)pyrimidin-5-yl)-6-morpholino-1,3,5-triazin-2-yl)piperazin-1-yl)dec-8-ene-1,7-dione], the “kchem (intrinsic reactivity of the inhibitors)” value [1] was 0.0632 M⁻¹ s⁻¹, the pIC50 [2, 3] was 7.35 and the pKi (p110α (PI3Kα); [4]) was 7.93. It also gave a kinact (p110α (PI3Kα); global fitting with KinTek) of 0.016 s⁻¹ and a kinact/KI (p110α (PI3Kα)) of 1.27e+06 M⁻¹ s⁻¹.
For CC(C)=CC(=O)CCC(=O)N1CCN(c2nc(-c3cnc(N)nc3C(F)F)nc(N3CCOCC3)n2)CC1 [Compound 22, 1-(4-(4-(2-amino-4-(difluoromethyl)pyrimidin-5-yl)-6-morpholino-1,3,5-triazin-2-yl)piperazin-1-yl)-6-methylhept-5-ene-1,4-dione], the “kchem (intrinsic reactivity of the inhibitors)” value [1] was 0.000188 M⁻¹ s⁻¹ and the kinact (p110α (PI3Kα); global fitting with KinTek) was 1.13e-05 s⁻¹.
With CC(C)=CC(=O)CCCC(=O)N1CCN(c2nc(-c3cnc(N)nc3C(F)F)nc(N3CCOCC3)n2)CC1 [Compound 23, 1-(4-(4-(2-amino-4-(difluoromethyl)pyrimidin-5-yl)-6-morpholino-1,3,5-triazin-2-yl)piperazin-1-yl)-7-methyloct-6-ene-1,5-dione] the “kchem (intrinsic reactivity of the inhibitors)” value [1] was 0.000224 M⁻¹ s⁻¹, the pKi (p110α (PI3Kα); [4]) was 8.09 and the kinact (p110α (PI3Kα); global fitting with KinTek) was 2.56e-05 s⁻¹. The kinact/KI (p110α (PI3Kα)) was 3210 M⁻¹ s⁻¹.
For CC(C)=CC(=O)CCCCCC(=O)N1CCN(c2nc(-c3cnc(N)nc3C(F)F)nc(N3CCOCC3)n2)CC1 [Compound 24, 1-(4-(4-(2-amino-4-(difluoromethyl)pyrimidin-5-yl)-6-morpholino-1,3,5-triazin-2-yl)piperazin-1-yl)-9-methyldec-8-ene-1,7-dione], the “kchem (intrinsic reactivity of the inhibitors)” value [1] was 0.000173 M⁻¹ s⁻¹ and the pIC50 [2, 3] was 7.05.
With C=CC(=O)N1CCC(C(=O)N2CCN(c3nc(-c4cnc(N)nc4C(F)F)nc(N4CCOCC4)n3)CC2)CC1 [Compound 28, 1-(4-(4-(4-(2-amino-4-(difluoromethyl)pyrimidin-5-yl)-6-morpholino-1,3,5-triazin-2-yl)piperazine-1-carbonyl)piperidin-1-yl)prop-2-en-1-one] the “kchem (intrinsic reactivity of the inhibitors)” value [1] was 0.00041 M⁻¹ s⁻¹, the pIC50 [2, 3] was 7.29 and the pKi (p110α (PI3Kα); [4]) was 7.96. The kinact (p110α (PI3Kα); global fitting with KinTek) was 5.77e-05 s⁻¹ and the kinact/KI (p110α (PI3Kα)) was 5390 M⁻¹ s⁻¹.
For C=CC(=O)N1CCC(CC(=O)N2CCN(c3nc(-c4cnc(N)nc4C(F)F)nc(N4CCOCC4)n3)CC2)CC1 [Compound 35, 1-(4-(2-(4-(4-(2-amino-4-(difluoromethyl)pyrimidin-5-yl)-6-morpholino-1,3,5-triazin-2-yl)piperazin-1-yl)-2-oxoethyl)piperidin-1-yl)prop-2-en-1-one], the “kchem (intrinsic reactivity of the inhibitors)” value [1] was 0.000249 M⁻¹ s⁻¹, the pIC50 [2, 3] was 7.33 and the pKi (p110α (PI3Kα); [4]) was 7.97. The kinact (p110α (PI3Kα); global fitting with KinTek) was 9.84e-05 s⁻¹ and the kinact/KI (p110α (PI3Kα)) was 9290 M⁻¹ s⁻¹.
In the case of C=CC(=O)N1CCC(CCC(=O)N2CCN(c3nc(-c4cnc(N)nc4C(F)F)nc(N4CCOCC4)n3)CC2)CC1 [Compound 40, 1-(4-(3-(4-(4-(2-amino-4-(difluoromethyl)pyrimidin-5-yl)-6-morpholino-1,3,5-triazin-2-yl)piperazin-1-yl)-3-oxopropyl)piperidin-1-yl)prop-2-en-1-one], the “kchem (intrinsic reactivity of the inhibitors)” value [1] was 0.000307 M⁻¹ s⁻¹, the pIC50 [2, 3] was 7.32 and the pKi (p110α (PI3Kα); [4]) was 8.07. The kinact (p110α (PI3Kα); global fitting with KinTek) was 0.000292 s⁻¹ and the kinact/KI (p110α (PI3Kα)) was 34300 M⁻¹ s⁻¹.
For C=CC(=O)N1CCC(C(=O)NCC(=O)N2CCN(c3nc(-c4cnc(N)nc4C(F)F)nc(N4CCOCC4)n3)CC2)CC1 [Compound 43, 1-acryloyl-N-(2-(4-(4-(2-amino-4-(difluoromethyl)pyrimidin-5-yl)-6-morpholino-1,3,5-triazin-2-yl)piperazin-1-yl)-2-oxoethyl)piperidine-4-carboxamide], the “kchem (intrinsic reactivity of the inhibitors)” value [1] was 0.00037 M⁻¹ s⁻¹ and the pIC50 [2, 5] was 7.09.
In the case of C=CC(=O)N1CCC(C(=O)N(C)CC(=O)N2CCN(c3nc(-c4cnc(N)nc4C(F)F)nc(N4CCOCC4)n3)CC2)CC1 [Compound 54, 1-acryloyl-N-(2-(4-(4-(2-amino-4-(difluoromethyl)pyrimidin-5-yl)-6-morpholino-1,3,5-triazin-2-yl)piperazin-1-yl)-2-oxoethyl)-N-methylpiperidine-4-carboxamide], the “kchem (intrinsic reactivity of the inhibitors)” value [1] was 0.000354 M⁻¹ s⁻¹ and the pIC50 [2, 5] was 7.07.
